Source: patent publication US8097761B2, “Process for production of carotenoid” (JX Nippon Oil & Energy Corporation, priority 2006, dated 2012)

Assay: Measurement of the concentration of astaxanthin dissolved at room temperature
Assay type: physicochemical

CC1=C(/C=C/C(C)=C/C=C/C(C)=C/C=C/C=C(C)/C=C/C=C(C)/C=C/C2=C(C)C(=O)[C@@H](O)CC2(C)C)C(C)(C)C[C@H](O)C1=O [astaxanthin]
Concentration dissolved (solvent 1,4-dioxane (Ethers), room temperature): 0.3 % (wt./wt.) | Concentration dissolved (solvent Acetone (Ketones), room temperature): 0.02 % (wt./wt.) | Concentration dissolved (solvent Benzene (Hydrocarbons), room temperature): 0.05 % (wt./wt.) | Concentration dissolved (solvent Chloroform (Halogens), room temperature): 0.7 % (wt./wt.) | Concentration dissolved (solvent Cyclohexane (Hydrocarbons), room temperature): 0.001 % (wt./wt.) | Concentration dissolved (solvent Cyclohexanone (Ketones), room temperature): 0.2 % (wt./wt.) | Concentration dissolved (solvent Dichloromethane (Halogens), room temperature): 2.3 % (wt./wt.) | Concentration dissolved (solvent Ethanol (Alcohols), room temperature): 0.002 % (wt./wt.) | Concentration dissolved (solvent Hexane (Hydrocarbons), room temperature): 0.003 % (wt./wt.) | Concentration dissolved (solvent Isopropanol (Alcohols), room temperature): 0.002 % (wt./wt.) | Concentration dissolved (solvent Methanol (Alcohols), room temperature): 0.003 % (wt./wt.) | Concentration dissolved (solvent Methylethylketone (Ketones), room temperature): 0.03 % (wt./wt.) | Concentration dissolved (solvent Methylisobutylketone (Ketones), room temperature): 0.02 % (wt./wt.) | Concentration dissolved (solvent Tetrahydrofuran (Ethers), room temperature): 0.7 % (wt./wt.) | Concentration dissolved (solvent Toluene (Hydrocarbons), room temperature): 0.03 % (wt./wt.) | Concentration dissolved (solvents other than halogen solvents, room temperature (summary of Table 1)): ≤ 1%
